Laboratory results from patent publication US20130202685A1, “Use of a histamine H4 antagonist for the treatment of post-operative adhesions” (Janssen Pharmaceutica NV, priority 2008, published 2013).
Where “and” joins values, the source holds several entries; their conditions need not be identical. Equal entries are not always repeated.

Key:
[1] = tested on: adhesion formation at the site of sidewall injury; assay: Peritoneal sidewall adhesion model (rabbit); assay type: in vivo; conditions: for Adhesion Area / Adhesion Tenacity: individual animals; for Adhesion Area Mean/SEM: group mean; for Adhesion Tenacity Mean/SEM (mean of the rank of the tenacity): group mean rank; for Adhesion Tenacity: score 0-3
Description: Multiple studies to confirm the efficacy of histamine H4 receptor antagonists in the reduction or inhibition of adhesion formation after peritoneal surgery were performed using a sidewall adhesion model.
Animals: Twenty eight female New Zealand White rabbits, 2.4-2.7 kg, were purchased from Irish Farms and quarantined for at least 2 days prior to use. The rabbits were housed on a 12:12 light:dark cycle with food and water available ad libitum.
Rabbits were anesthetized with a mixture of 55 mg/kg ketamine hydrochloride and 5 mg/kg Rompum intramuscularly. Following preparation for sterile surgery, a midline laparotomy was performed. A polyethylene catheter (Clay Adams polyethylene tubing PE-60 ID 0.76 mm (0.030″) OD 1.22 mm (0.048″)) was introduced into the peritoneal cavity and sutured to the sidewall with 5-0 Ethilon. For local administration, an Alzet miniosmotic pump (10 μl/hour, 2 ml, Model 2ML1 from Durect), filled with one dosage level or placebo (water for injection) control at 10 μl/hour over 7 days starting with the day of surgery was placed in the subcutaneous space. The catheter was then attached to the pump and the midline muscle incision was closed around the catheter. The cecum and bowel were exteriorized and digital pressure was exerted to create subserosal hemorrhages over all surfaces. The damaged intestine was then lightly abraded with 4″×4″ 4-ply sterile gauze until punctate bleeding was observed. The cecum and bowel was then returned to their normal anatomic position. A 5×3 cm area of peritoneum and transversus abdominous muscle was removed on the right lateral abdominal wall. The incision was closed in two layers with 3-0 Vicryl (Ethicon, Somerville, N.J.). The pump was replaced at day 7.
Twenty-one days after surgery, rabbits were sacrificed by intravenous EuthaSol. Adhesion formation at the site of sidewall injury was assessed by examination to determine the percentage of the area of the sidewall injury involved in adhesions. The percentage of a surface of the sidewall involved in adhesions to various organs are given in the tables below to quantify the overall adhesion score. In addition, tenacity of the adhesion formed was scored using a system as follows:
1=mild, easily dissectible adhesions;
3=dense adhesions; non-dissectible, tears when removed.
The difference in adhesion formation between the control and treated groups were analyzed by Student's t-test. A reduction in the area and the tenacity of the adhesions would be considered beneficial and efficacious.
General observations were conducted on each animal (appearance, behavior, clinical signs, symptoms, moribundity, mortality, and physical examinations) prior to assignment to study and on the day of necropsy. On the day of necropsy data and observations were recorded with particular attention to inflammation, granulomatous material and adhesion formation at the treatment site. All biocompatibility results were recorded, and the level of reaction was noted (none, mild, moderate, severe).

[2] = tested on: adhesion formation at the site of sidewall injury; assay: Peritoneal sidewall adhesion model (rabbit); assay type: in vivo; conditions: individual animals
[3] = 5 mg/ml, non-systemic by Alzet pump, 21 days after surgery
[4] = 5 mg/ml, non-systemic by pump, result in words

CN1CCN(C(=O)c2c[nH]c3ccc(Cl)cc23)CC1 [(5-Chloro-1H-indol-3-yl)-(4-methyl-piperazin-1-yl)-methanone]
Adhesion Area ([1]; 5 mg/ml, non-systemic by Alzet pump 10 μl/hour, 21 days after surgery): 60 percentage and 70 percentage and 40 percentage and 80 percentage and 50 percentage and 100 percentage (2×)
Adhesion Area Mean/SEM [1, 3]: 71.4 ± 8.8 percentage
Adhesion Tenacity Mean/SEM (mean of the rank of the tenacity) [1, 3]: 6.93 ± 1.4
Adhesion Tenacity [1, 3]: 1 (6×) and 2
clinical signs ([1]; 5 mg/ml, non-systemic by pump, general observations): No other rabbits showed any clinical signs
inflammatory or granulomatous reactions in the peritoneal cavity ([1]; 5 mg/ml, non-systemic by pump, necropsy observation): no inflammatory or granulomatous reactions
area of adhesions versus control [1, 4]: significantly reduced
tenacity of adhesions versus control [1, 4]: significantly reduced

Cc1cc(C)c2nc(-c3cnc(NCCCC4CCN(C)CC4)nc3C)[nH]c2c1 [Test Compound, [5-(4,6-dimethyl-1H-benzoimidazol-2-yl)-4-methyl-pyrimidin-2-yl]-[3-(1-methyl-piperidin-4-yl)-propyl]-amine]
Adhesion Area ([1]; 0.1 mg/ml, non-systemic (pump), 21 days after surgery): 80 percentage (2×) and 100 percentage (3×) and 70 percentage (2×)
Adhesion Area Mean/SEM ([1]; 0.1 mg/ml, non-systemic (pump)): 85.7 ± 5.28 percentage
Adhesion Tenacity Mean/SEM (mean of the rank of the tenacity) ([1]; 0.1 mg/ml, non-systemic (pump)): 20.1 ± 3.37
Adhesion Tenacity ([1]; 0.1 mg/ml, non-systemic (pump)): 2 (5×) and 3 and 1
Adhesion Area ([1]; 1 mg/ml, non-systemic (pump), 21 days after surgery): 80 percentage (3×) and 70 percentage and 60 percentage (3×)
Adhesion Area Mean/SEM ([1]; 1 mg/ml, non-systemic (pump)): 70 ± 10 percentage
Adhesion Tenacity Mean/SEM (mean of the rank of the tenacity) ([1]; 1 mg/ml, non-systemic (pump)): 13.9 ± 3.38
Adhesion Tenacity ([1]; 1 mg/ml, non-systemic (pump)): 2 (4×) and 1 (3×)
Adhesion Area ([1]; 10 mg/ml, non-systemic (pump), 21 days after surgery): 100 percentage (2×) and 60 percentage (2×) and 80 percentage (2×) and 90 percentage
Adhesion Area Mean/SEM ([1]; 10 mg/ml, non-systemic (pump)): 81.4 ± 6.34 percentage
Adhesion Tenacity Mean/SEM (mean of the rank of the tenacity) ([1]; 10 mg/ml, non-systemic (pump)): 18.3 ± 1.43
Adhesion Tenacity ([1]; 10 mg/ml, non-systemic (pump)): 2 (6×) and 1
Adhesion Area Mean/SEM ([1]; 30 mg/kg orally): 78.6 ± 8.85 percentage
Adhesion Tenacity Mean/SEM (mean of the rank of the tenacity) ([1]; 30 mg/kg orally): 17.6 ± 5.27
tenacity of adhesions ([1]; mid-dose (1 mg/ml) administered by pump, not statistically significant, result in words): appeared reduced
area of adhesion reduction ([1]; mid-dose (1 mg/ml) administered by pump, result in words): statistically significant
Adhesion Area ([2]; 30 mg/kg orally (gavage on day of surgery and four additional days), 21 days after surgery): 100 percentage (3×) and 40 percentage and 70 percentage and 80 percentage and 60 percentage
Adhesion Tenacity ([2]; 30 mg/kg orally, score 0-3): 3 (2×) and 1 (3×) and 2 (2×)
